Laboratory results from patent US8377955B2, “Branched 3- and 6-substituted quinolines as CGRP receptors antagonists” (Merck, Sharp & Dohme, Corp., priority 2008, dated 2013).
Where two headings read alike, the source gives them in different places. Each block holds one compound with its values, some of them ahead of it. No end group written: not given here.

How the values were obtained:
Human CGRP receptor = biological target: T1, Human CGRP receptor (Homo sapiens, UniProt O60894+Q16602); assay: Human CGRP receptor binding (125I-CGRP displacement)
T1 construct: expressed in transfected cells; membranes
Experimental: NATIVE RECEPTOR BINDING ASSAY: The binding of ^125I-CGRP to receptors in SK-N-MC cell membranes was carried out essentially as described (Edvinsson et al. (2001) Eur. J. Pharmacol. 415, 39-44). Briefly, membranes (25 μg) were incubated in 1 mL of binding buffer [10 mM HEPES, pH 7.4, 5 mM MgCl2 and 0.2% bovine serum albumin (BSA)] containing 10 pM ^125I-CGRP and antagonist. After incubation at room temperature for 3 h, the assay was terminated by filtration through GFB glass fibre filter plates (PerkinElmer) that had been blocked with 0.5% polyethyleneimine for 3 h. The filters were washed three times with ice-cold assay buffer (10 mM HEPES, pH 7.4 and 5 mM MgCl2), then the plates were air dried. Scintillation fluid (50 μL) was added and the radioactivity was counted on a Topcount (Packard Instrument). Data analysis was carried out by using Prism and the Ki was determined by using the Cheng-Prusoff equation (Cheng & Prusoff (1973) Biochem. Pharmacol. 22, 3099-3108).
RECOMBINANT RECEPTOR: Human CL receptor (Genbank accession number L76380) was subcloned into the expression vector pIREShyg2 (BD Biosciences Clontech) as a 5′NheI and 3′ PmeI fragment. Human RAMP1 (Genbank accession number AJ001014) was subcloned into the expression vector pIRESpuro2 (BD Biosciences Clontech) as a 5′NheI and 3′NotI fragment. HEK 293 cells (human embryonic kidney cells; ATCC #CRL-1573) were cultured in DMEM with 4.5 g/L glucose, 1 mM sodium pyruvate and 2 mM glutamine supplemented with 10% fetal bovine serum […], 100 units/mL penicillin and 100 μg/mL streptomycin, and maintained at 37° C. and 95% humidity. Cells were subcultured by treatment with 0.25% trypsin with 0.1% EDTA in HBSS. Stable cell line generation was accomplished by co-transfecting 10 μg of DNA with 30 μg Lipofectamine 2000 (Invitrogen) in 75 cm^2 flasks. CL receptor and RAMP1 expression constructs were co-transfected in equal amounts. Twenty-four hours after transfection the cells were diluted and selective medium (growth medium+300 μg/mL hygromycin and 1 μg/mL puromycin) was added the following day. A clonal cell line was generated by single cell deposition utilizing a FACS Vantage SE (Becton Dickinson). Growth medium was adjusted to 150 μg/mL hygromycin and 0.5 μg/mL puromycin for cell propagation.
RECOMBINANT RECEPTOR BINDING ASSAY: Cells expressing recombinant human CL receptor/RAMP1 were washed with PBS and harvested in harvest buffer containing 50 mM HEPES, 1 mM EDTA and Complete protease inhibitors (Roche). The cell suspension was disrupted with a laboratory homogenizer and centrifuged at 48,000 g to isolate membranes. The pellets were resuspended in harvest buffer plus 250 mM sucrose and stored at −70° C. For binding assays, 20 μg of membranes were incubated in 1 ml binding buffer (10 mM HEPES, pH 7.4, 5 mM MgCl2, and 0.2% BSA) for 3 hours at room temperature containing 10 pM ^125I-hCGRP (GE Healthcare) and antagonist. The assay was terminated by filtration through 96-well GFB glass fiber filter plates (PerkinElmer) that had been blocked with 0.05% polyethyleneimine. […]
[formula] Where Y is observed CPM bound, Ymax is total bound counts, Ymin is non specific bound counts, (Ymax−Ymin) is specific bound counts, % Imax is the maximum percent inhibition, % I min is the minimum percent inhibition, radiolabel is the probe, and the Kd is the apparent dissociation constant for the radioligand for the receptor as determined by Hot saturation experiments.

middle meningeal artery = details: rats, electrical stimulation of the dura mater, prior administration (Williamson et al. 1997); cited from earlier work
facial blood flow [1] = details: rat, trigeminal ganglion stimulation (Escott et al. 1995); cited from earlier work
[2] = system: acute attacks of migraine; details: clinical trials (Olesen et al. 2004); cited from earlier work
[3] = system: headache induced by CGRP infusion; details: control group (Petersen et al. 2005); cited from earlier work
facial blood flow [4] = details: marmoset, electrical stimulation of the trigeminal ganglion (Dodds et al. 2000); cited from earlier work
[5] = table of Examples 32-37, read-out: Ki
[6] = read-out: Human CGRP receptor binding Ki

T1 sequence (Q16602 23-461): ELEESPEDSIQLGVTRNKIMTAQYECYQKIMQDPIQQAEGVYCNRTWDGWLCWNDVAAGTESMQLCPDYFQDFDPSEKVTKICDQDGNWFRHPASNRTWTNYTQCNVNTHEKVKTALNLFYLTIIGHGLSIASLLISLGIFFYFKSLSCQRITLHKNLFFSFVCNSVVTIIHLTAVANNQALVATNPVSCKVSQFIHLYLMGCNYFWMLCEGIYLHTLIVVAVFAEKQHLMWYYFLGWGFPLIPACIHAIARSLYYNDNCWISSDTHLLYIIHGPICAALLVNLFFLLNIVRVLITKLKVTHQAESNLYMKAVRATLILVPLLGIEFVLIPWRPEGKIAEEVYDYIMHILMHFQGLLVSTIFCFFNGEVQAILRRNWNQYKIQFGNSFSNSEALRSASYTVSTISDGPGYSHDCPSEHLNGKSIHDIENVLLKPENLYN
T1 sequence (O60894 27-148): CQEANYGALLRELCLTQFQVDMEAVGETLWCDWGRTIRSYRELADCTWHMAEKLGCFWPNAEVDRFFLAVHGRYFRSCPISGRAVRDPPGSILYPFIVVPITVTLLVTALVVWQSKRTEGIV

Compound: CC(c1cc(F)cc(F)c1)N(Cc1cnc2cc3c(cc2c1)C[C@@]1(C3)C(=O)Nc2ncccc21)C(=O)C1CCOCC1 (stereo in doubt) [Example 1, N-[(1R)-1-(3,5-Difluorophenyl)ethyl]-N-{[(7S)-2′-oxo-1′,2′,6,8-tetrahydrospiro-[cyclopenta[g]quinoline-7,3′-pyrrolo[2,3-b]pyridin]-3-yl]methyl}tetrahydro-2H-pyran-4-carboxamide]
Ki (Human CGRP receptor; [6]): 0.05 nM

Compound: CGRP (8-37): a peptide CGRP antagonist; fragment of CGRP that lacks seven N-terminal amino acid residues (VTHRLAGLLSRSGGVVKNNFVPTNVGSKAF; ends and bridges not checked; UniProt P06881 90-119, looked up, fragment)
effect on increase in diameter of the middle meningeal artery (middle meningeal artery): blocked
effect on increased facial blood flow (facial blood flow [1]): inhibited

Compound: NCCCC[C@H](NC(=O)[C@@H](Cc1cc(Br)c(O)c(Br)c1)NC(=O)N1CCC(N2Cc3ccccc3NC2=O)CC1)C(=O)N1CCN(c2ccncc2)CC1 [BIBN4096BS]
efficacy in treating acute attacks of migraine [2]: effective in treating acute attacks of migraine
prevention of headache induced by CGRP infusion [3]: able to prevent headache induced by CGRP infusion
effect on increase in facial blood flow (facial blood flow [4]): blocked

Compound: CCOC(=O)CN(Cc1ccccc1)C(=O)c1cnc2cc3c(cc2c1)C[C@@]1(C3)C(=O)Nc2ncccc21 [Example 2, Ethyl(benzyl{[(7S)-2′-oxo-1′,2′,6,8-tetrahydrospiro[cyclopenta[g]quinoline-7,3′-pyrrolo[2,3-b]pyridin]-3-yl]carbonyl}amino)acetate]
Ki (Human CGRP receptor; [6]): 60 nM

Compound: CC(C)(C)OC(=O)[C@H](NC(=O)c1cnc2cc3c(cc2c1)C[C@@]1(C3)C(=O)Nc2ncccc21)c1ccccc1 [Example 33]
Ki (Human CGRP receptor; [5]): 120 nM

Continued, values first:

Ki (Human CGRP receptor; [5]): 140 nM
Compound: CC(C)(C)OC(=O)[C@@H](NC(=O)c1cnc2cc3c(cc2c1)C[C@@]1(C3)C(=O)Nc2ncccc21)c1ccccc1 [Example 34]

Ki (Human CGRP receptor; [5]): 76 nM
Compound: CC(C)(C)OC(=O)CC(NC(=O)c1cnc2cc3c(cc2c1)C[C@@]1(C3)C(=O)Nc2ncccc21)c1ccccc1 (stereo partly shown) [Example 36]
